# Test results: patent US11326207B2, “Sequencing using non-natural nucleotides” (Ultima Genomics, Inc., priority 2017, dated 2022)
# Like-named read-outs stand apart in the source and are kept apart here.
# How the values were obtained:
# Bst 2.0 DNA polymerase = assay: Homopolymer assays of nucleotide analogs (Example 10); type: biochemical
# Protocol: A homopolymer assay was performed to investigate the effectiveness of E-dCTP and P-dUTP as nucleotide analogs of dCTP. 50 μl solutions containing a template nucleic acid molecule and primer and Bst 2.0 DNA polymerase are placed in a microplate reader and the fluorescence of the solution is measured in kinetic mode. A fluorescein attached to an oligonucleotide (indicated with a * in FIG. 7) was quenched in the substrate due to the proximity of complementary G bases. Addition of dCTP and/or dCTP analogs causes extension of the 3′ end of the primer, formation of double-stranded DNA, and unquenching of the fluorescein. The fluorescence increases with the addition of multiple nucleotides.
# Additional homopolymer assays were performed according to the procedure outlined in Example 8 using different nucleotides and nucleotide analogs.
# To test for dUTP or TTP incorporation, oligo 332 was used as a template and oligo 221L was used as a primer. To test for dCTP incorporation, oligo 333 was used as a template and oligo 221L was used as a primer. To test for dGTP incorporation, oligo 334 was used as a template and oligo 221L was used as a primer. To test for dATP incorporation, hairpin oligo 221 was used as both a primer and template.
# DNA polymerase = conditions: for peak height (red fluorescence on the gel): dUTP* only (Fr = 1.0) or dUTP*/named dUTP^0
# Protocol: A gel assay was also performed to examine context-dependent incorporation. […] The primers had different lengths poly-T tails to enable separation on a polyacrylamide gel. […] Excess nucleotides and nucleotide analogs were washed away and the sample was loaded onto a gel.
# The red fluorescence on the gel was analyzed with ImageJ. The peak heights for the extension reactions for each primer with Fr=1.0 was measured. […] The ratios of the peak heights for each pair were calculated (“norm.”). […] The metric in this experiment was context, as defined as: C=(Maximum signal−minimum signal)/(average signal).
# Bst DNA polymerase v.2.0 = assay: Flow cytometry assay: tolerance of dye-labeled dUTP* compared to dUTP analogs (Example 7); type: biochemical; conditions: for Tolerance: tolerance of dUTP* compared to the named dUTP^0
# Protocol: A solution of biotinylated template (2 microliters (μL) of 100 μM) and dye-labeled primer (4 μL of 100 μM) were combined in annealing buffer (40 μL; Tris (10 millimolar (mM)), EDTA (1 mM), NaCl (100 mM)). The resulting solution was heated to 95° C. and allowed to slowly cool to room temperature. A portion of this solution (8 μL) was mixed with streptavidin-labeled magnetic beads (4 μL of Invitrogen Dynabeads™ MyOne™ Streptavidin C1, 10 milligrams/milliliter (mg/mL); washed and eluant removed) and 2× bead wash buffer (8 μL; 10 mM Tris, pH 7.5, 1 mM EDTA, 2 M NaCl, 0.01% Triton X-100). After washing with TET solution (10 mM Tris, 1 mM EDTA, 0.05% Triton X-100) the beads were treated with Bst DNA polymerase v.2.0 (8 μL of 8 units (U)/μL; New England Biolabs) for five minutes. The excess enzyme was removed by washing with TET and the beads were suspended in 1×DNA polymerase buffer solution (20 mM Tris, pH 8, 10 mM NaCl, 2 mM MgCl2, 0.01% Triton X-100). The sequence of the biotinylated template was /52 Bio//iSp18/[…] […] (SEQ ID NO: 12), where “5” is indicative of the 5′-end of the oligo, 2-Bio indicates dual biotin, and iSP18 indicates a PEG spacer. […] […] (SEQ ID NO: 13), where “5” indicates the 5′-end of the oligo and JOE indicates a fluorescent dye attached to the oligo.
# Next, a portion of the suspended magnetic beads (10 μL) were removed and placed in a PCR tube. A solution of nucleotides (10 μL) was added to the tube and the tube incubated for 40 seconds (s) at 50° C. The enzyme reaction was stopped with the addition of 5 μL of 50 mM EDTA. The beads were washed with 2×100 μL TET and resuspended in 20 μL TET. A portion of the bead solution (1 μL) was added to TE (200 μL) and the beads examined for red fluorescence on a flow cytometer (BD Accuri™, APC channel). The eluant of the remaining beads was removed and 40 μL of 95:5 formamide:10 mM EDTA was added to the beads. A portion of the formamide solution (1 μL) was added to 40 μL 95:5 formamide EDTA. The solutions were examined by capillary electrophoresis (CE) on an ABI 3730 instrument and the peaks identified and quantitated by peak height. The experimental protocol is summarized schematically in FIG. 2.
# Tolerance was measured at two molar fractions, […] and 0.05, for each of the four dUTP analogs.
# hairpin oligo = assay: Kinetic assay using hairpin oligos (Example 7); type: biochemical
# Protocol: A kinetic assay using hairpin oligos was also performed to determine the rate of incorporate of an unnatural nucleotide and a natural nucleotide following the unnatural nucleotide. […] Incorporation of a T or U analog unquenched a fluorescein in the hairpin oligo. Following incorporation of the T or U analog, a mixture of C and A was added, which further unquenched the dye.
# [1] = Natural Nucleotide C (dCTP = 1), template oligo 333, primer 221L
# [2] = Natural Nucleotide T (TTP = 1), template oligo 332, primer 221L
# [3] = Natural Nucleotide A (dATP = 1), hairpin oligo 221
# [4] = Natural Nucleotide G (dGTP = 1), template oligo 334, primer 221L
compound,measurement,setting,value
"Nc1nc(=O)n([C@H]2C[C@H](O)[C@@H](COP(=O)(O)OP(=O)(O)OP(=O)(O)O)O2)cc1Br [5-Bromo-dCTP, 5-bromo-2′-deoxycytidine 5′triphosphate]",Relative Rate in Homopolymer Assay,Bst 2.0 DNA polymerase; [1],>1
"O=c1[nH]c(=O)n([C@H]2C[C@H](O)[C@@H](COP(=O)(O)OP(=O)(O)OP(=O)(O)O)O2)cc1Br [5-Bromo-dUTP, 5-bromo-2′-deoxyuridine 5′triphosphate]",Relative Rate in Homopolymer Assay,Bst 2.0 DNA polymerase; [2],>1
"O=c1[nH]c(=O)n([C@H]2C[C@H](O)[C@@H](COP(=O)(O)OP(=O)(O)OP(=O)(O)O)O2)cc1F [5-Fluoro-dUTP, 5-fluoro-2′-deoxyuridine 5′triphosphate]",Relative Rate in Homopolymer Assay,Bst 2.0 DNA polymerase; [2],<1
"Nc1nc(=O)n([C@H]2C[C@H](O)[C@@H](COP(=O)(O)OP(=O)(O)OP(=O)(O)O)O2)cc1O [5-Hydroxy-dCTP, 5-hydroxy-2′-deoxycytidine 5′triphosphate]",Relative Rate in Homopolymer Assay,Bst 2.0 DNA polymerase; [1],<<1
"Nc1nc(=O)n([C@H]2C[C@H](O)[C@@H](COP(=O)(O)OP(=O)(O)OP(=O)(O)O)O2)cc1CO [5-Hydroxymethyl-dCTP, 5-ydroxymethyl-2′-deoxycytidine 5′triphosphate]",Relative Rate in Homopolymer Assay,Bst 2.0 DNA polymerase; [1],<<1
"O=c1[nH]c(=O)n([C@H]2C[C@H](O)[C@@H](COP(=O)(O)OP(=O)(O)OP(=O)(O)O)O2)cc1I [5-Iodo-dUTP, 5-iodo-2′-deoxyuridine 5′triphosphate]",Relative Rate in Homopolymer Assay,Bst 2.0 DNA polymerase; [2],>1
"Cc1cn([C@H]2C[C@H](O)[C@@H](COP(=O)(O)OP(=O)(O)OP(=O)(O)O)O2)c(=O)nc1N [5-Methyl-dCTP, 5-methyl-2′-deoxycytidine 5′triphosphate]",Relative Rate in Homopolymer Assay,Bst 2.0 DNA polymerase; [1],>1
"C#CCNc1cn([C@H]2C[C@H](O)[C@@H](COP(=O)(O)OP(=O)(O)OP(=O)(O)O)O2)c(=O)[nH]c1=O [5-Propargylamino-dUTP, 5-proparylamino-2′-deoxyuridine 5′triphosphate]",Relative Rate in Homopolymer Assay,Bst 2.0 DNA polymerase; [2],<<1
"Nc1nc(=O)n([C@H]2C[C@H](O)[C@@H](COP(=O)(O)OP(=O)(O)OP(=O)(O)O)O2)cc1C=O [5-formyl-dCTP, 5-formyl-2′-deoxycytidine 5′triphosphate]",Relative Rate in Homopolymer Assay,Bst 2.0 DNA polymerase; [1],<<1
"Nc1ncnc2c1c(I)cn2[C@H]1C[C@H](O)[C@@H](COP(=O)(O)OP(=O)(O)OP(=O)(O)O)O1 [7-Iodo-7-deaza-dATP, 7-deaza-7-iodo-2′-deoxyadenosine-5′-triphosphate]",Relative Rate in Homopolymer Assay,Bst 2.0 DNA polymerase; [3],>1
"Nc1ncnc2c1ccn2[C@H]1C[C@H](O)[C@@H](COP(=O)(O)OP(=O)(O)OP(=O)(O)O)O1 [7-deaza-dATP, 7-deaza-2′-deoxyadenosine-5′-triphosphate]",Relative Rate in Homopolymer Assay,Bst 2.0 DNA polymerase; [3],<1
"Nc1nc2c(ccn2[C@H]2C[C@H](O)[C@@H](COP(=O)(O)OP(=O)(O)OP(=O)(O)O)O2)c(=O)[nH]1 [7-deaza-dGTP, 7-deaza-2′-deoxyguanosine-5′-triphosphate]",Relative Rate in Homopolymer Assay,Bst 2.0 DNA polymerase; [4],<1
"Nc1ncnc2c1nc(Br)n2[C@H]1C[C@H](O)[C@@H](COP(=O)(O)OP(=O)(O)OP(=O)(O)O)O1 [Bromo-dATP, bromo-deoxyadenosine triphosphate]",Relative Rate in Homopolymer Assay,Bst 2.0 DNA polymerase; [3],>1
"CC#Cc1cn([C@H]2C[C@H](O)[C@@H](COP(=O)(O)OP(=O)(O)OP(=O)(O)O)O2)c(=O)[nH]c1=O [P-dUTP, 5-propynyl-2′-deoxyuridine 5′triphosphate]",Norm. (ratio of peak height dUTP*/dUTP^0 to Fr=1.0),DNA polymerase; Peak 1,1.3
same,peak height (red fluorescence on the gel),DNA polymerase; Peak 1 (primer),55
same,Norm. (ratio of peak height dUTP*/dUTP^0 to Fr=1.0),DNA polymerase; Peak 2,1.4
same,peak height (red fluorescence on the gel),DNA polymerase; Peak 2 (primer),54
same,Norm. (ratio of peak height dUTP*/dUTP^0 to Fr=1.0),DNA polymerase; Peak 3,1.0
same,peak height (red fluorescence on the gel),DNA polymerase; Peak 3 (primer),27
same,Norm. (ratio of peak height dUTP*/dUTP^0 to Fr=1.0),DNA polymerase; Peak 4,1.1
same,peak height (red fluorescence on the gel),DNA polymerase; Peak 4 (primer),36
same,Norm. (ratio of peak height dUTP*/dUTP^0 to Fr=1.0),DNA polymerase; Peak 5,1.4
same,peak height (red fluorescence on the gel),DNA polymerase; Peak 5 (primer),32
same,context C=(Maximum signal−minimum signal)/(average signal),"DNA polymerase; five primers, gel assay with dUTP*",0.32
same,Relative Rate in Homopolymer Assay,Bst 2.0 DNA polymerase; [2],>1
same,performance as a substrate compared with TTP (in words),Bst DNA polymerase v.2.0; from tolerance for the labeled nucleotide at both molar fractions,outperforms TTP as a substrate
same,Apparent fraction,Bst DNA polymerase v.2.0; molar fraction dUTP* 0.05,0.032
same,Red signal,"Bst DNA polymerase v.2.0; molar fraction dUTP* 0.05, rest the named dUTP^0","1,600"
same,Apparent fraction,Bst DNA polymerase v.2.0; molar fraction dUTP* 0.5,0.32
same,Red signal,"Bst DNA polymerase v.2.0; molar fraction dUTP* 0.5, rest the named dUTP^0","16,000"
same,Tolerance,Bst DNA polymerase v.2.0; molar fraction dUTP* 0.05,0.6
same,Tolerance,Bst DNA polymerase v.2.0; molar fraction dUTP* 0.5,0.6
same,incorporation of dCTP and dATP after the dUTP analog,hairpin oligo; mixture of C and A added after T or U analog,rapid
same,initial incorporation of dUTP analog,hairpin oligo; unquenching of fluorescein in hairpin oligo,rapid
"Nc1ncnc2c1ncn2[C@H]1C[C@H](O)[C@@H](COP(=O)(O)OP(=O)(O)OP(=O)(O)O)O1 [dATP, deoxyadenosine triphosphate, reference compound]",Relative Rate in Homopolymer Assay,Bst 2.0 DNA polymerase; [3],1
"Nc1nc2c(ncn2[C@H]2C[C@H](O)[C@@H](COP(=O)(O)OP(=O)(O)OP(=O)(O)O)O2)c(=O)[nH]1 [dGTP, deoxyguanosine triphosphate, reference compound]",Relative Rate in Homopolymer Assay,Bst 2.0 DNA polymerase; [4],1
iodo-2′-deoxyguanosine-5′-triphosphate [Iodo-dGTP],Relative Rate in Homopolymer Assay,Bst 2.0 DNA polymerase; [4],>1
